In brackets after ≈: the same amount, converted by molar mass. Activity calls are given as the source filed them. The calls are words filed in the database; no cut-off is given here.
Tests used:
[1] = tested on: Streptococcus pneumoniae; test: Antibacterial activity against Streptococcus pneumoniae TIGR4 assessed as inhibition of bacterial growth at 10 uM incubated for 24 hrs by agar plate assay; assay type: functional
[2] = tested on: Bacillus subtilis; test: Antibacterial activity against Bacillus subtilis 168 assessed as inhibition of bacterial growth at 10 uM incubated for 6 hrs by agar plate assay; assay type: functional, organism-based
[3] = tested on: Staphylococcus aureus; test: Antibacterial activity against Staphylococcus aureus; assay type: functional
[4] = tested on: Bacillus subtilis; test: Antibacterial activity against Bacillus subtilis; assay type: functional
[5] = tested on: Mycobacterium tuberculosis; test: Antibacterial activity against Mycobacterium tuberculosis H37; assay type: functional
[6] = target: T1, Cell division protein FtsZ (Streptococcus pneumoniae serotype 2 (strain D39 / NCTC 7466)) (UniProt A0A0H2ZNE0); test: Inhibition of Streptococcus pneumoniae FtsZ assessed as increase in GTPase activity by measuring increase in inorganic phosphate release at >20 uM pretreated for 20 mins followed by GTP addition and measured after 10 mins by malachite green assay based UV-Vis spectrophometry; conditions: time 30.0 min
T1 sequence (whole entry): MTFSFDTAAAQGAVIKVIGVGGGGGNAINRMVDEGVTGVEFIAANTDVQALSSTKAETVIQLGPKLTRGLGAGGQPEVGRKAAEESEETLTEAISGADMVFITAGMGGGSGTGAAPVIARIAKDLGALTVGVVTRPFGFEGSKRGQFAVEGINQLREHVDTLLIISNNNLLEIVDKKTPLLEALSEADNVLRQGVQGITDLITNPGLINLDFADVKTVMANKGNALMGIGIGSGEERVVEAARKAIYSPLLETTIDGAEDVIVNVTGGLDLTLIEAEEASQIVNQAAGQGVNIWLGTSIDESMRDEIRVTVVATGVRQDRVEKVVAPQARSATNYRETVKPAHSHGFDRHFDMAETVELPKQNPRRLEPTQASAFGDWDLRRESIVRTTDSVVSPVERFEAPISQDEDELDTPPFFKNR

[7] = target: T1, Cell division protein FtsZ (Streptococcus pneumoniae serotype 2 (strain D39 / NCTC 7466)); test: Inhibition of Streptococcus pneumoniae FtsZ polymerization at 5 to 40 uM pretreated for 20 mins followed by GTP addition and measured for 20 mins by tryptophan fluorescence based spectrofluorometric analysis; conditions: dose 5-40 µM, time 40.0 min
[8] = tested on: Streptococcus pneumoniae; test: Antibacterial activity against Streptococcus pneumoniae TIGR4 assessed as inhibition of bacterial growth incubated for 24 hrs by agar dilution method; assay type: functional
[9] = tested on: Bacillus subtilis; test: Antibacterial activity against Bacillus subtilis 168 assessed as inhibition of bacterial growth incubated for 6 hrs by agar dilution method; assay type: functional
[10] = tested on: Acinetobacter baumannii; test: Antibacterial activity against Acinetobacter baumannii ATCC 19606 assessed as inhibition of bacterial growth incubated for 18 hrs by microbroth dilution method; assay type: functional
[11] = tested on: Streptococcus pneumoniae; test: Antibacterial activity against Streptococcus pneumoniae TIGR4 assessed as inhibition of bacterial proliferation incubated for 24 hrs by CLSI based analysis; assay type: functional, organism-based
[12] = tested on: Vibrio cholerae; test: Antibacterial activity against Vibrio cholerae assessed as inhibition of bacterial growth at 10 to 20 uM incubated for 4 hrs; assay type: functional, organism-based; conditions: dose 10-20 µM
[13] = tested on: Streptococcus pyogenes; test: Antibacterial activity against Streptococcus pyogenes assessed as inhibition of bacterial growth at 10 to 20 uM incubated for 20 hrs; assay type: functional, organism-based; conditions: dose 10-20 µM
[14] = target: T1, Cell division protein FtsZ (Streptococcus pneumoniae serotype 2 (strain D39 / NCTC 7466)); test: Inhibition of Streptococcus pneumoniae FtsZ assessed as inhibition of extent of polymerization at 30 uM pretreated for 20 mins followed by GTP addition and measured for 20 mins by light scattering based analysis; conditions: time 40.0 min
[15] = target: T1, Cell division protein FtsZ (Streptococcus pneumoniae serotype 2 (strain D39 / NCTC 7466)); test: Inhibition of Streptococcus pneumoniae FtsZ assessed as inhibition of rate of polymerization at 40 uM pretreated for 20 mins followed by GTP addition and measured for 20 mins by tryptophan fluorescence based spectrofluorometric analysis; conditions: time 40.0 min
[16] = tested on: Streptococcus pneumoniae; test: Bactericidal activity against Streptococcus pneumoniae TIGR4 assessed as induction of cell death by measuring proportion of PI-stained bacteria at 20 ug/ml incubated for 12 hrs by propidium iodide staining based confocal microscopy (reference value: 2%); assay type: functional; conditions: dose 20 µg/ml
[17] = target: T1, Cell division protein FtsZ (Streptococcus pneumoniae serotype 2 (strain D39 / NCTC 7466)); test: Inhibition of FtsZ in Streptococcus pneumoniae assessed as propotion of cells with intact Z-ring at 40 uM incubated for 30 mins by DAPI staining based immunostaining analysis (reference value: 92%); parameters: scale not given: the % may be the effect or the level left
[18] = tested on: Streptococcus pneumoniae; test: Induction of membrane disruption in Streptococcus pneumoniae TIGR4 at 40 uM incubated for 30 mins by FM4-64 live cell staining based confocal microscopy; assay type: functional, organism-based
[19] = target: T1, Cell division protein FtsZ (Streptococcus pneumoniae serotype 2 (strain D39 / NCTC 7466)); test: Inhibition of Streptococcus pneumoniae FtsZ assessed as time required to start of polymerization at 40 uM pretreated for 20 mins followed by GTP addition and measured for 20 mins by tryptophan fluorescence based spectrofluorometric analysis (reference value: 37 +/-18 sec); conditions: time 40.0 min
[20] = tested on: Bacillus subtilis; test: Antibacterial activity against Bacillus subtilis 168 assessed as inhibition of bacterial growth at 10 to 20 uM incubated for 4 hrs; assay type: functional, organism-based; conditions: dose 10-20 µM
[21] = Antiproliferative activity against human HeLa cells assessed as inhibition of cell growth incubated for 24 hrs by SRB assay; assay type: toxicity, cell-based
[22] = target: T1, Cell division protein FtsZ (Streptococcus pneumoniae serotype 2 (strain D39 / NCTC 7466)); test: Inhibition of Streptococcus pneumoniae FtsZ polymerization assessed as length of polymers at 40 uM preincubated for 20 mins followed by GTP addition for 200 secs and later incubated on copper-TEM grid for 5 mins by transmission electron microscopy (reference value: 61 +/-26 nm); conditions: time 1700.0 sec
[23] = tested on: Escherichia coli; test: Antibacterial activity against Escherichia coli K12 assessed as inhibition of bacterial growth at 10 to 20 uM incubated for 4 hrs; assay type: functional, organism-based; conditions: dose 10-20 µM
[24] = target: T1, Cell division protein FtsZ (Streptococcus pneumoniae serotype 2 (strain D39 / NCTC 7466)); test: Inhibition of Streptococcus pneumoniae FtsZ polymerization assessed as very short and thin polymers at 40 uM preincubated for 20 mins followed by GTP addition for 200 secs and later incubated on copper-TEM grid for 5 mins by transmission electron microscopy; conditions: time 1700.0 sec
[25] = target: T1, Cell division protein FtsZ (Streptococcus pneumoniae serotype 2 (strain D39 / NCTC 7466)); test: Inhibition of FtsZ in Streptococcus pneumoniae assessed as improper distribution of FtsZ throughout the cells at 40 uM incubated for 30 mins by DAPI staining based immunostaining analysis
[26] = tested on: Streptococcus pneumoniae; test: Bactericidal activity against Streptococcus pneumoniae TIGR4 assessed as induction of cell death by measuring proportion of PI-stained bacteria at 40 ug/ml incubated for 12 hrs by propidium iodide staining based confocal microscopy (reference value: 2%); assay type: functional; conditions: dose 40 µg/ml
[27] = tested on: Staphylococcus aureus; test: Antibacterial activity against Staphylococcus aureus assessed as inhibition of bacterial growth at 10 to 20 uM incubated for 4 hrs; assay type: functional, organism-based; conditions: dose 10-20 µM
[28] = target: T1, Cell division protein FtsZ (Streptococcus pneumoniae serotype 2 (strain D39 / NCTC 7466)); test: Inhibition of Streptococcus pneumoniae FtsZ assessed as rate of polymerization at 40 uM pretreated for 20 mins followed by GTP addition and measured for 20 mins by tryptophan fluorescence based spectrofluorometric analysis (reference value: 0.19 +/-0.02 au/s); conditions: time 40.0 min
[29] = target: T1, Cell division protein FtsZ (Streptococcus pneumoniae serotype 2 (strain D39 / NCTC 7466)); test: Inhibition of Streptococcus pneumoniae FtsZ polymerization at 20 uM preincubated for 20 mins followed by GTP addition for 3 mins by atomic force microscopy; conditions: time 23.0 min
[30] = target: T1, Cell division protein FtsZ (Streptococcus pneumoniae serotype 2 (strain D39 / NCTC 7466)); test: Inhibition of Streptococcus pneumoniae FtsZ assessed as inhibition of extent of polymerization at 40 uM pretreated for 20 mins followed by GTP addition and measured for 20 mins by light scattering based analysis; conditions: time 40.0 min
[31] = target: T1, Cell division protein FtsZ (Streptococcus pneumoniae serotype 2 (strain D39 / NCTC 7466)); test: Inhibition of Streptococcus pneumoniae FtsZ assessed as increase in GTPase activity by measuring increase in inorganic phosphate release upto 20 uM pretreated for 20 mins followed by GTP addition and measured after 10 mins by malachite green assay based UV-Vis spectrophometry; conditions: time 30.0 min
[32] = tested on: Klebsiella pneumoniae; test: Antibacterial activity against Klebsiella pneumoniae assessed as inhibition of bacterial growth at 10 to 20 uM incubated for 4 hrs; assay type: functional, organism-based; conditions: dose 10-20 µM
[33] = tested on: Streptococcus pneumoniae; test: Induction of DNA nucleoid segregation in Streptococcus pneumoniae at 40 uM incubated for 30 mins by DAPI staining based immunostaining analysis; assay type: functional, organism-based
[34] = tested on: Staphylococcus aureus; test: Antibacterial activity against Staphylococcus aureus assessed as inhibition of bacterial growth incubated for 16 to 24 hrs by CLSI based microdilution assay; assay type: functional; conditions: time 16-24 hrs

Compound: CCOC(=O)c1c(CSc2ccccc2)nc2ccc(Br)cn12
- inhibition at 10 µM [1]: 25%
- Activity [2]: inactive

Compound: CCOC(=O)c1c(CSc2ccc(Cl)cc2)nc2ccc(Br)cn12
- inhibition at 10 µM [1]: 17%
- Activity [2]: inactive

Compound: CCOC(=O)c1c(CSc2ccccc2OC)nc2ccc(Br)cn12
- inhibition at 10 µM [1]: 17%
- Activity [2]: inactive

Compound: NC(=O)c1c(F)ccc(OCc2nc3cc(Cl)cnc3s2)c1F
- MIC [3]: 0.5 µg/mL (≈ 1.41 µM)
- MIC [4]: 1 µg/mL (≈ 2.81 µM)

Compound: CC(NC(=O)c1nc2ccccc2n1-c1ccccc1)c1ccccc1 (stereo unspecified)
- MIC [5]: 0.78 µg/mL (≈ 2.28 µM)
- MIC [4]: 1.56 µg/mL (≈ 4.57 µM)

Compound: CCOC(=O)c1c(CSc2ccc3ccccc3c2)nc2ccc(Br)cn12
- inhibition at 10 µM [1]: 54%
- inhibition [6]: inactive
- Activity [2]: inactive
- inhibition [7]: Active

Compound: O=C(CCc1ccc(O)cc1)C1=C(O)C(Cc2ccc(O)cc2)CCC1 (stereo unspecified)
- MIC [8]: ~0.7 µg/mL (≈ 1.99 µM)
- MIC [9]: ~3.8 µg/mL (≈ 10.8 µM)

Compound: CCOC(=O)c1c(CSc2ccc(Br)cc2)nc2ccc(Br)cn12
- inhibition at 10 µM [1]: 0%
- Activity [2]: inactive

Compound: CCOC(=O)c1c(CSc2ccccc2Br)nc2ccc(Br)cn12
- inhibition at 10 µM [1]: 0%
- Activity [2]: inactive

Compound: Cc1nc2ccccc2n1C(=O)/C=C/c1ccc(Br)cc1
- MIC [10]: 32 µg/mL (≈ 93.8 µM)

Compound: CCOC(=O)c1c(CSc2ccncc2)nc2ccc(Br)cn12
- inhibition at 10 µM [1]: 31%
- Activity [2]: inactive

Compound: CCOC(=O)c1c(CSc2nc3ccccc3[nH]2)nc2ccc(Br)cn12
- inhibition at 10 µM [1]: 37%
- Activity [2]: inactive

Compound: CCOC(=O)c1c(CSc2ccc(OC)cc2)nc2ccc(Br)cn12
- IC50 ([11]; TIGR4, 24 h): 17 µM
- MIC ([11]; TIGR4, time 24 hrs): 20 µg/mL (≈ 47.5 µM)
- inhibition at 10 µM [1]: 67%
- Activity [12]: inactive
- Activity [13]: Active
- inhibition [14]: 34%
- inhibition [15]: 75%
- Activity [16]: 17%
- Activity [17]: 46%
- Activity [18]: inactive
- TIME [19]: 0.0644 h
- Activity [20]: inactive
- IC50 at 24 h [21]: 41 µM
- Activity [22]: 13 nm
- Activity [23]: inactive
- inhibition [24]: Active
- inhibition [25]: 54%
- Activity [26]: 28%
- Activity [27]: inactive
- Activity [2]: inactive
- INH [28]: 0.05 AU/sec
- inhibition [29]: Active
- inhibition [30]: 59%
- inhibition [31]: Active
- Activity [32]: inactive
- Activity [33]: inactive
- inhibition [7]: Active

Compound: CC1=CC(=O)c2ccccc2C1=O [MENADIONE]
- inhibition at 10 µM [1]: 100%

Compound: NC(=O)c1c(F)ccc(OCc2nc3cc(C(F)(F)F)cnc3s2)c1F
- MIC [34]: 2 µg/mL (≈ 5.14 µM)

Compound: CCOC(=O)c1c(CSc2ccc([N+](=O)[O-])cc2)nc2ccc(Br)cn12
- inhibition at 10 µM [1]: 0%
- Activity [2]: inactive
